Measurements published in paper PMC7822874, “Chemoprotective antimalarials identified through quantitative high-throughput screening of Plasmodium blood and liver stage parasites” (Scientific Reports, 2021).

test system: Plasmodium falciparum Dd2 asexual blood stage parasites; assay: microbe, parasite or virus in culture; parameters: species or system Plasmodium falciparum Dd2 in human erythrocytes; single determination (one 11-point concentration-response curve); details: Plasmodium falciparum, DD2, Erythrocyte, 72 h

Compound | AC50 [µM]
Cc1ccc(C(=O)Nc2cccc(NC(=O)c3ccc(C)c([N+](=O)[O-])c3)n2)cc1[N+](=O)[O-] [MLS001195117-01] | 15

same assay, conditions: Plasmodium falciparum, DD2, Erythrocyte, 72 h; read-out: AC50

Compound | AC50 [µM]
CCCCc1cc(=O)oc2cc(C)cc(OCC(=O)Nc3cccnc3)c12 [MLS001160046-01] | 0.596
CCN(CC)c1ccc2oc(=O)c(C)nc2c1 [MLS000062529-01] | 6.68
COc1cccc(NC(=O)C2(C)CN(C)Cc3ccc(N4CCOCC4)nc32)c1 (stereo not shown) [NCGC00414578-01] | 3.85
O=C(NCC(c1ccco1)N1CCCC1)c1ccc(Cl)cc1 (stereo not shown) [MLS000570686-01] | 8.41
COc1ccc(NC(=O)Cc2c[nH]c3ncc(-c4cnn(C)c4)cc23)cn1 [NCGC00412250-01] | 12.2
Cc1cc(Nc2nc3ccccc3nc2Cl)n(-c2ccccc2C)n1 [MLS000595322-01] | 0.841
CCC(=O)NC(N)=Nc1nc(C)c2cc(C)c(C)cc2n1 [MLS000768400-01] | 9.44
Cc1noc(C)c1-c1cc2cc(CN(C)C)oc2c(NCCOc2ccccc2)n1 [NCGC00417493-01] | 15.3
COc1ccc(NC(=O)c2nnn3c2CN(Cc2cccc(Cl)c2)C(=O)CC3)c(C)c1 [NCGC00415347-01] | 2.17
CCN(CC)C(=O)c1ccc(-c2nnc3ccc(NC(=O)C4CC4)cn23)cc1 [NCGC00429860-01] | 2.99
Cn1nc(C(F)(F)F)c(-c2ccc(F)cc2)c1NC(=O)Nc1ccc(F)cc1 [MLS000830769-01] | 1.88
CCn1nnc(NC(=O)c2ccc(C(C)(C)C)cc2)n1 [MLS000035112-01] | 9.44
COc1ccc(CC(=O)NCc2cc(C)cc3c(C)c(C)[nH]c23)c(OC)c1 [NCGC00431513-01] | 8.41
Cc1ccc(NC(=O)N2CCC(N3C(=O)C4(CCCCC4)C3c3ccncc3)CC2)cc1C (stereo not shown) [NCGC00461123-01] | 7.5
Cc1cccc2cc(CN(Cc3ccco3)C(c3nnnn3CCc3ccccc3)C(C)C)c(O)nc12 (stereo not shown) [MLS000072528-01] | 10.6
Cc1nc2c(c(-c3ccc(O)cc3)n1)CN(Cc1ccc(C(F)(F)F)cc1)CCC2 [NCGC00480263-01] | 4.22
CC1=C[C@@H](CNC(C)C)[C@H](C(C)C)C[C@H]1Cc1nnc(-c2ccc(C)cc2)o1 [NCGC00394176-01] | 13.7
CC1(c2ccccc2)O[C@@H]2C[C@H]3[C@@H]4CCC5=CC(=O)C=C[C@]5(C)[C@@]4(F)[C@@H](O)C[C@]3(C)[C@]2(C(=O)CO)O1 (stereo partly shown) [MLS000738166-01] | 4.73
COC(=O)c1ccc2nc(CO[C@H]3CN(Cc4cn(C)c5ccccc45)C[C@H]3F)[nH]c2c1 [NCGC00392963-01] | 13.3
CCOC(=O)c1ccc(Nc2nc(N)c3cc(OC)c(OC)cc3n2)cc1 [NCGC00107259-01] | 1.88
CCOc1cc(C(=O)N2CCC(CC3CC(c4ccc(Cl)cc4)=NO3)(C(=O)NCC3CCCCC3)CC2)cc(OCC)c1OCC (stereo not shown) [MLS001143937-01] | 0.841
CCCc1nc2ccc(NC(=O)c3cccs3)cc2c(=O)n1Cc1ccc(Cl)cc1 [MLS000569177-01] | 8.41
COc1ccc(CN2CCC(CO)(CCCc3ccccc3)CC2)c(Cl)c1OC [NCGC00426399-01] | 8.41
CCN(C(=O)CSc1nc(-c2ccc(C(C)C)cc2)no1)c1cccc(C)c1 [NCGC00127902-01] | 1.06
COc1cccc(CN2C(=O)OC3(CCN(Cc4ccc5c(c4)CCO5)CC3)C2(C)c2cccnc2)c1 (stereo not shown) [NCGC00415555-01] | 4.73
COc1ccccc1Nc1cnc2ccc(-c3ccc(F)cc3)nn12 [NCGC00412490-01] | 6.85

Compound | AC50 [µM]
Cc1c(CN2CCN(CC(C)(C)C)C(CCO)C2)[nH]c2ccccc12 (stereo not shown) [MLS001000590-01] | 9.44
CC(=O)Nc1cccc(OCc2nnc(C(=O)N3CCC[C@@H]3C(c3ccccc3)c3ccccc3)n2-c2ccccc2)c1 [NCGC00415783-01] | 10.6
Cc1ccc(Cl)cc1N1CCN(C(=O)c2cn(CC(C)C)c(=O)c3c2c2ccccc2n3C)CC1 [NCGC00106023-01] | 3.35
O=c1c2ccccc2sc2nc(C3CCCCC3)n(Cc3ccco3)c(=O)c12 [MLS000084065-01] | 7.5
COc1ccc2nc(C[C@@H]3C[C@@H](C(C)C)[C@H](CNCc4cccnc4)C=C3C)[nH]c2n1 [NCGC00401578-01] | 19.3
Cc1nc(-c2cccc(Cl)c2)n(CC(=O)Nc2ccc(C(F)(F)F)cc2)c(=O)c1CCO [NCGC00471081-01] | 13.3
C#CCN(C)C(=O)C[C@@H]1c2nc(NC(=O)c3ccc(OC)cc3)sc2C[C@@H]2[C@](C)(CO)[C@H](O)CC[C@]21C [NCGC00394313-01] | 2.66
Cc1ccc(OCc2nc(C3CCN(C(=O)c4c5c(nc6ccccc46)CCCC5)CC3)no2)cc1 [NCGC00459905-01] | 9.44
C1CCC(CNc2c3c(nc4nnnn24)CCCC3)CC1 [MLS000034780-01] | 13.3
CC1CCCN(Cc2c(O)ccc3c(=O)c(Oc4ccccc4Cl)c(C(F)(F)F)oc23)C1 (stereo not shown) [NCGC00101512-01] | 2.11
Cc1cc(C)c2oc(=O)cc(CN3CCCCC3)c2c1 [MLS001216359-01] | 13.3
Cc1ccccc1-n1c(=C(C#N)C(=O)Nc2ccccc2)sc(=Cc2ccco2)c1=O [MLS000081502-01] | 5.31
CCOC(=O)c1ccc(Nc2nc(=O)c(C(C)(C)C)n[nH]2)cc1 [MLS000044326-01] | 13.3
CCOc1ccccc1C(=O)N1CC(=O)Nc2ccc(Cl)cc2C1c1ccccc1 (stereo not shown) [NCGC00103922-01] | 9.44
CCN1CCN(Cc2ccc(NC(=O)c3cc(NC(=O)c4cc(-c5ccc(OC)cc5)n[nH]4)cc(OC)c3)cc2C(F)(F)F)CC1 [MLS000911571-01] | 0.168
CCc1cccc(-n2c(=O)c3cccnc3n2CC(=O)Nc2ccc(F)c(C)c2)c1 [NCGC00128424-01] | 2.66
O=C(Nc1ccccc1)c1cc2c(-c3ccccc3)nn(-c3ccccc3)c2s1 [NCGC00102084-01] | 3.35
COc1ccccc1C(=O)N1CCC2(CC1)OC(=O)N(Cc1ccccc1C#N)C2(C)c1ccccc1 (stereo not shown) [NCGC00415624-01] | 15
CCCc1c(C)[nH]c2ccccc2c1=O [MLS000067721-01] | 7.5
CCOC(=O)C1=Nc2ccccc2C1=[N+]=[N-] [MLS000079382-01] | 4.22
Cc1ccccc1-c1nccn2c(C3CN(Cc4ccccc4O)C3)ncc12 [NCGC00414046-01] | 5.44
O=C(Nc1sc2c(c1C(=O)NCc1ccco1)CCCC2)c1cc(=O)c2ccccc2o1 [NCGC00115806-01] | 10.6
COc1ccc(Nc2c(-c3cc(Br)ccc3O)nc3ncccn23)cc1OC [NCGC00107676-01] | 4.73
Cc1noc(C)c1-c1cc2cc(CN(C)C)oc2c(NCCc2ccccc2)n1 [NCGC00417471-01] | 13.7
COc1cncc(Nc2cnc3ccc(-c4ccc(F)cc4)nn23)c1 [NCGC00412595-01] | 3.06
CCC1=Nc2cc(C(=O)NCc3ccco3)ccc2Sc2ccc(C)cc21 [MLS000583106-01] | 8.41

Compound | AC50 [µM]
OCc1cccc(-c2ccc3ncc(Nc4ccc(OCCN5CCCC5)cc4)n3n2)c1 [NCGC00412543-01] | 3.44
Cc1ccc(C)c(CN2C(=O)c3ccccc3[S+](=O)([O-])c3ccc(C(=O)NCCc4ccc(Cl)cc4)cc32)c1 [NCGC00109793-01] | 7.5
COc1ccc(CCN(C)/C(S)=N/c2cccc(C)c2)cc1OC [MLS001177860-01] | 2.11
O=S(=O)(c1ccc(F)cc1)N1CCN(/C(S)=N/CC2CCCO2)CC1 (stereo not shown) [MLS001148319-01] | 6.68
O=C(NCCCN1CCc2ccccc2C1)C1Cn2cccc2C(=O)N1Cc1ccccc1 (stereo not shown) [NCGC00456658-01] | 9.44
Cc1ccc2nc(-c3ccc(O)c(O)c3)cn2c1 [MLS001209043-01] | 13.3
O=C1c2c(nc(CN3CCCC(CO)C3)n2Cc2ccccc2)NCCN1Cc1cccc(Cl)c1 (stereo not shown) [NCGC00415148-01] | 15
OC(COc1ccccc1CNCCc1ccccc1)CN1CCSCC1 (stereo not shown) [NCGC00427853-01] | 2.11
COc1ccc(OCCn2cc(C(=O)c3ccco3)c3ccccc32)cc1 [NCGC00101886-01] | 2.11
CCCCn1c(N)c(N(CC(C)C)C(=O)c2cc(-c3ccc(OC)c(OC)c3)nc3ccccc23)c(=O)[nH]c1=O [MLS001157051-01] | 11.9
CC(C)c1nc2c(c(-c3ccc(O)cc3)n1)CN(Cc1cccc(F)c1)CC2 [NCGC00480376-01] | 9.44
O=C(NCC1CCCCC1)C12CN(Cc3ccccc3)CC1C(c1cccc([N+](=O)[O-])c1)=NO2 (stereo not shown) [MLS000561441-01] | 6.68
COc1ccc(-c2nnc(C[C@@H]3C[C@@H](C(C)C)[C@H](CN4CCC(O)CC4)C=C3C)o2)cc1 [NCGC00394772-01] | 9.44
Cc1c(O)c(CN(C)C)cc2c1oc(=O)c1ccccc12 [MLS000778334-01] | 4.22
OC(c1ccc(Cl)cc1)C(CN1CCOCC1)c1ccccc1 (stereo not shown) [MLS001173582-01] | 2.99
COc1cc(Br)c(C(C)NC(=O)c2cccc(Br)c2)cc1OC (stereo not shown) [MLS000325399-01] | 2.11
CCC[S+](=O)([O-])c1nc([S+](=O)([O-])c2ccc(C)cc2)c(NCCCOC(C)C)s1 [NCGC00113582-01] | 2.11
COc1ccccc1C1CC(c2ccccc2)=NN1C(=O)c1ccccc1 (stereo not shown) [MLS001197331-01] | 2.37
Cc1oc2c(CN3CCCCC3)c(O)ccc2c(=O)c1-c1ccc(Cl)cc1 [MLS001214839-01] | 5.31
Cc1cccc(N2CCN(C(=O)CCc3nnc4n(CC(C)C)c(=O)c5ccccc5n34)CC2)c1C [NCGC00112784-01] | 3.35
O=C(Nc1ccc(Cl)cc1)c1cc2c(-c3ccccc3)nn(-c3ccccc3)c2s1 [NCGC00102088-01] | 2.37
COc1ccc(-c2cnc3[nH]cc(CC(=O)NCc4cccnc4)c3c2)cn1 [NCGC00412433-01] | 6.85
CC(Oc1ccc(F)cc1)C(=O)Nc1cc(C(F)(F)F)ccc1-n1cncn1 (stereo not shown) [MLS001160637-01] | 1.68
CN1C(=O)C2(c3ccccc31)N(C)CC(c1ccccc1)C21SC(=S)N(Cc2ccco2)C1=O (stereo not shown) [MLS000559203-01] | 13.3
CC(C)(Oc1nn(Cc2cccc(Cl)c2)c2ccccc12)C(=O)NCCN1CCOCC1 [NCGC00419620-01] | 5.31
CCCC1=[N+](CC(=O)c2ccccc2)CCn2c(C)ccc21 [MLS000551171-01] | 15
